Results on one compound are retold here after patent publication US5906981A, “Halopropargyl inclusion complexes” (Troy Corporation, priority 1996, dated 1999).

Structures are written as SMILES.

A short description of series [1]: Thermal decomposition point. The format is physicochemical. The conditions noted are these: pure IPBC or IPBC in the inclusion complex. The procedure:
The melting point of pure IPBC is 66-67° C. and its decomposition occurs at about 150-155° C., leading to formation of highly colored by-products. The decomposition point of IPBC in the inclusion complex of Examples 1 and 3 was determined to be about 222-225° C.

Series [2] can be described thus: Dissolution in water: stirring in water for 1/2 hour, filtration, recovery of IPBC (Example 2). The format is physicochemical. Conditions: 4 g IPBC in 96 g water, stirred 1/2 hour. How it is done: Four grams of IPBC were added to 96 g of water and stirred for 1/2 hour. The resulting slurry was filtered off and the filter cake was dried and weighed. […] Approximately 27 g of the lyophilized inclusion complex prepared in Example 1 was added to 73 g water and the mixture was stirred for 1/2 hour. […] Use of the inclusion complex in this manner thus affords approximately 4% solution of IPBC in water, which is a solubility enhancement of approximately 250-300 times.

Turning to `CCCCNC(=O)OCC#CI` [IPBC, 3-iodo-2-propynyl butylcarbamate], in series [1], the decomposition point was 150-155 °C. Also, in series [2], the “IPBC recovered in the filter cake” value is recorded as “Approximately 98%”.
